Test results reported in patent US11666558B2, “Methods of treating intraocular pressure with activators of Tie-2” (EyePoint Pharmaceuticals, Inc., priority 2015, dated 2023).
Values joined by “and” are separate entries in the source; they are usually repeats but may differ in a detail not shown here. Identical values can stand only once. “Also recorded” adds a separate entry of the source. Counter-ions that a name gives are not always drawn. Blank lines part the entries; values can stand above or below the compound they belong to.

Columns and labels:
Type in all cases: in vivo, New Zealand White rabbits
[1] = Ocular abnormalities in the ocular pharmacokinetics study; conditions: all dose groups (topical ocular, subcutaneous, intravitreal)
Description: Pre-screening clinical ophthalmic exams were done prior to study (includes slit-lamp biomicroscopy and indirect ophthalmoscopy). Ocular findings were scored using the McDonald-Shadduck Score System, and only animals that scored zero in all categories were used in the study.
Concentration versus time data is plotted in FIGS. 3-16. All data are expressed as ng/g of the free drug. Samples that were below the limit of quantitation (0.2 ng/mL) were not used in the calculation of averages.

intraocular pressure = assay: Intraocular pressure (pneumotonometer) after repeated topical and subcutaneous administration in normotensive rabbits
Description: To measure the tolerability and effect of Compound 1 (sodium salt) on intraocular pressure following repeated topical and subcutaneous administration, normotensive New Zealand White rabbits were treated with Compound 1 (sodium salt). Animals were acclimated 1 to 2 times per day to the intraocular pressure (IOP) measurement procedures prior to initiation of the study to determine baseline IOP levels. IOP acclimation was performed in the two weeks prior to study start for a total of 5 days. Animals with unacceptable IOP values were excluded from the study. Prior to taking all IOP measurements, 1 to 2 drops of a 0.5% proparacaine solution were applied to the eye as a topical anesthetic. OP measurements were performed with a pneumotonometer. Test and control formulations were administered to the animals once or twice daily topically into both eyes or subcutaneously starting on Day 1 according to TABLE 20 and TABLE 21 below. PM dosing, where applicable, was performed ˜8 hours after AM dosing. IOP measurements were performed twice (AM and PM) at baseline (prior to the start of dosing), twice (AM and PM) on Days 1 and 7, and once daily (AM) on Days 2-6 and Day 8. Prior to taking all IOP measurements, 1 to 2 drops of a 0.5% proparacaine solution were applied to the eye as a topical anesthetic. IOP measurements were performed with a pneumotonometer. AM IOP measurements were performed 2 hours after AM dosing; the only exceptions were Day 8 AM measurements, which were performed 24 hours after the final dose. PM IOP measurements were performed ˜5 hours (baseline and Day 1) or ˜4 hours (Day 7) after AM IOP measurements, prior to PM dosing, with at least 15 minutes elapsing between anesthetic application for PM IOP measurements and PM dosing. The final round of slit-lamp examinations was performed on Day 8.

[2] = General health observations after repeated dosing; conditions: repeated topical (0.45 or 1.2 mg/eye) and subcutaneous (10 mg/kg) dosing over 7 days
Description: Animals were observed within their cages once daily throughout the study period. […] General health observations were recorded daily beginning on Day 1 and continuing throughout the course of the study.

[3] = Group 2, 0.45 mg/eye topical BID, Day 1, AM, OS
[4] = Group 2, 0.45 mg/eye topical BID, Day 1, PM, OD
[5] = Group 2, 0.45 mg/eye topical BID, Day 2, AM, OD
[6] = Group 2, 0.45 mg/eye topical BID, Day 2, AM, OS
[7] = Group 2, 0.45 mg/eye topical BID, Day 3, AM, OD
[8] = Group 2, 0.45 mg/eye topical BID, Day 3, AM, OS
[9] = Group 2, 0.45 mg/eye topical BID, Day 4, AM, OD
[10] = Group 2, 0.45 mg/eye topical BID, Day 4, AM, OS
[11] = Group 2, 0.45 mg/eye topical BID, Day 5, AM, OD
[12] = Group 3, 1.2 mg/eye topical BID, Day 1, AM, OD
[13] = Group 3, 1.2 mg/eye topical BID, Day 1, AM, OS
[14] = Group 3, 1.2 mg/eye topical BID, Day 1, PM, OD
[15] = Group 3, 1.2 mg/eye topical BID, Day 2, AM, OS
[16] = Group 3, 1.2 mg/eye topical BID, Day 3, AM, OD
[17] = Group 3, 1.2 mg/eye topical BID, Day 3, AM, OS
[18] = Group 3, 1.2 mg/eye topical BID, Day 4, AM, OD
[19] = Group 3, 1.2 mg/eye topical BID, Day 4, AM, OS
[20] = Group 3, 1.2 mg/eye topical BID, Day 5, AM, OS
[21] = Group 4, 1.2 mg/eye topical QD, Day 1, AM, OD
[22] = Group 4, 1.2 mg/eye topical QD, Day 2, AM, OD
[23] = Group 4, 1.2 mg/eye topical QD, Day 5, AM, OD

ocular abnormalities [1]: No ocular abnormalities
SMILES: COC(=O)N[C@@H](Cc1ccccc1)C(=O)N[C@@H](Cc1ccc(NS(=O)(=O)O)cc1)c1csc(-c2cccs2)n1 [Compound 1]

SMILES: COC(=O)N[C@@H](Cc1ccccc1)C(=O)N[C@@H](Cc1ccc(NS(=O)(=O)O)cc1)c1csc(-c2cccs2)n1 [Compound 1 sodium salt]
Intraocular pressure (IOP), individual animal (intraocular pressure; Group 2, 0.45 mg/eye topical BID, Day 1, AM, OD): 20.3 and 23.7 and 24.0 and 20.7 and 21.7
Intraocular pressure (IOP), group Average (intraocular pressure; [3]): 23.3
Intraocular pressure (IOP), individual animal (intraocular pressure; [3]): 20.7 and 25.2 and 23.3
Intraocular pressure (IOP), group Average (intraocular pressure; [4]): 25.5
Intraocular pressure (IOP), individual animal (intraocular pressure; [4]): 24.8 and 22.0
Intraocular pressure (IOP), individual animal (intraocular pressure; Group 2, 0.45 mg/eye topical BID, Day 1, PM, OS): 25.3
Intraocular pressure (IOP), group Average (intraocular pressure; [5]): 21.9
Intraocular pressure (IOP), individual animal (intraocular pressure; [5]): 22.0 and 22.7 and 25.0
Intraocular pressure (IOP), group Average (intraocular pressure; [6]): 22.2
Intraocular pressure (IOP), individual animal (intraocular pressure; [6]): 22.3 and 24.3
Intraocular pressure (IOP), group Average (intraocular pressure; [7]): 24.0
Intraocular pressure (IOP), individual animal (intraocular pressure; [7]): 25.0 and 24.2 and 26.0 and 23.8
Intraocular pressure (IOP), group Average (intraocular pressure; [8]): 24.5
Intraocular pressure (IOP), individual animal (intraocular pressure; [8]): 25.3 and 23.5 and 26.0 and 23.0
Intraocular pressure (IOP), group Average (intraocular pressure; [9]): 23.9
Intraocular pressure (IOP), individual animal (intraocular pressure; [9]): 23.8 and 22.0 and 26.7 and 25.7
Intraocular pressure (IOP), group Average (intraocular pressure; [10]): 24.3
Intraocular pressure (IOP), individual animal (intraocular pressure; [10]): 23.0 and 22.7 and 26.3 and 23.5 and 26.2
Intraocular pressure (IOP), group Average (intraocular pressure; [11]): 25.2
Intraocular pressure (IOP), individual animal (intraocular pressure; [11]): 22.8 and 28.0 and 20.7 and 25.7
Intraocular pressure (IOP), individual animal (intraocular pressure; Group 2, 0.45 mg/eye topical BID, Day 5, AM, OS): 25.0 and 28.0 and 24.2 and 26.3
Intraocular pressure (IOP), group Average (intraocular pressure; Group 2, 0.45 mg/eye topical BID, Day 6, AM, OD): 25.5
Intraocular pressure (IOP), group Average (intraocular pressure; Group 2, 0.45 mg/eye topical BID, Day 7, AM, OD): 23.7
Intraocular pressure (IOP), group Average (intraocular pressure; Group 2, 0.45 mg/eye topical BID, Day 7, AM, OS): 24.5
Intraocular pressure (IOP), group Average (intraocular pressure; [12]): 22.0
Intraocular pressure (IOP), individual animal (intraocular pressure; [12]): 23.2 and 24.0 and 20.2
Intraocular pressure (IOP), group Average (intraocular pressure; [13]): 23.2
Intraocular pressure (IOP), individual animal (intraocular pressure; [13]): 23.8 and 23.0 (2×)
Intraocular pressure (IOP), group Average (intraocular pressure; [14]): 24.1
Intraocular pressure (IOP), individual animal (intraocular pressure; [14]): 24.7 and 25.2
Intraocular pressure (IOP), individual animal (intraocular pressure; Group 3, 1.2 mg/eye topical BID, Day 1, PM, OS): 24.5 (2×) and 23.7 and 25.0
Intraocular pressure (IOP), individual animal (intraocular pressure; Group 3, 1.2 mg/eye topical BID, Day 2, AM, OD): 17.5 and 25.5
Intraocular pressure (IOP), group Average (intraocular pressure; [15]): 21.2
Intraocular pressure (IOP), individual animal (intraocular pressure; [15]): 20.2 and 24.0 and 24.5
Intraocular pressure (IOP), group Average (intraocular pressure; [16]): 20.7
Intraocular pressure (IOP), individual animal (intraocular pressure; [16]): 20.0 and 23.0 and 22.2
Intraocular pressure (IOP), group Average (intraocular pressure; [17]): 21.2
Intraocular pressure (IOP), individual animal (intraocular pressure; [17]): 20.0 and 22.7 and 23.0
Intraocular pressure (IOP), group Average (intraocular pressure; [18]): 22.8
Intraocular pressure (IOP), individual animal (intraocular pressure; [18]): 23.2 and 24.8 and 22.2
Intraocular pressure (IOP), group Average (intraocular pressure; [19]): 23.2
Intraocular pressure (IOP), individual animal (intraocular pressure; [19]): 23.3 and 24.2 and 24.5 and 22.3
Intraocular pressure (IOP), individual animal (intraocular pressure; Group 3, 1.2 mg/eye topical BID, Day 5, AM, OD): 21.5 and 23.7
Intraocular pressure (IOP), group Average (intraocular pressure; [20]): 22.0
Intraocular pressure (IOP), individual animal (intraocular pressure; [20]): 22.3 and 23.5
Intraocular pressure (IOP), group Average (intraocular pressure; Group 3, 1.2 mg/eye topical BID, Day 6, AM, OS): 24.7
Intraocular pressure (IOP), group Average (intraocular pressure; Group 3, 1.2 mg/eye topical BID, Day 7, AM, OS): 22.0
Intraocular pressure (IOP), group Average (intraocular pressure; Group 3, 1.2 mg/eye topical BID, Day 7, PM, OD): 23.7
IOP values compared to Group 1 (Vehicle) (intraocular pressure; Group 3, 1.2 mg/eye topical BID, over the course of dosing): lower IOP values
Intraocular pressure (IOP), group Average (intraocular pressure; [21]): 21.2
Intraocular pressure (IOP), individual animal (intraocular pressure; [21]): 22.0 and 20.2
Intraocular pressure (IOP), individual animal (intraocular pressure; Group 4, 1.2 mg/eye topical QD, Day 1, AM, OS): 22.0 and 23.3 and 21.2
Intraocular pressure (IOP), individual animal (intraocular pressure; Group 4, 1.2 mg/eye topical QD, Day 1, PM, OD): 21.3 and 24.0
Intraocular pressure (IOP), individual animal (intraocular pressure; Group 4, 1.2 mg/eye topical QD, Day 1, PM, OS): 22.5 and 25.5
Intraocular pressure (IOP), group Average (intraocular pressure; [22]): 20.0
Intraocular pressure (IOP), individual animal (intraocular pressure; [22]): 20.0 and 20.3
Intraocular pressure (IOP), individual animal (intraocular pressure; Group 4, 1.2 mg/eye topical QD, Day 2, AM, OS): 21.0
Intraocular pressure (IOP), individual animal (intraocular pressure; Group 4, 1.2 mg/eye topical QD, Day 3, AM, OD): 23.5 and 21.0
Intraocular pressure (IOP), individual animal (intraocular pressure; Group 4, 1.2 mg/eye topical QD, Day 3, AM, OS): 20.0 and 21.2
Intraocular pressure (IOP), individual animal (intraocular pressure; Group 4, 1.2 mg/eye topical QD, Day 4, AM, OD): 21.5 and 22.2 and 20.7
Intraocular pressure (IOP), individual animal (intraocular pressure; Group 4, 1.2 mg/eye topical QD, Day 4, AM, OS): 20.0 and 24.3 and 23.5
Intraocular pressure (IOP), group Average (intraocular pressure; [23]): 21.0
Intraocular pressure (IOP), individual animal (intraocular pressure; [23]): 23.8
Intraocular pressure (IOP), individual animal (intraocular pressure; Group 4, 1.2 mg/eye topical QD, Day 5, AM, OS): 22.7 and 22.0
Intraocular pressure (IOP), group Average (intraocular pressure; Group 4, 1.2 mg/eye topical QD, Day 7, AM, OS): 23.0
IOP values compared to Group 1 (Vehicle) (intraocular pressure; Group 4, 1.2 mg/eye topical QD, over the course of dosing): lower IOP values
IOP values compared to Group 1 (Vehicle) (intraocular pressure; Group 5, 10 mg/kg subcutaneous BID): Lower IOP values compared to Group 1 were also seen in the early part of the study
Intraocular pressure (IOP), group Average (intraocular pressure; Group 5, 10 mg/kg subcutaneous BID, Day 2, AM, OD): 21.5
Intraocular pressure (IOP), group Average (intraocular pressure; Group 5, 10 mg/kg subcutaneous BID, Day 3, AM, OD): 20.7
Intraocular pressure (IOP), group Average (intraocular pressure; Group 5, 10 mg/kg subcutaneous BID, Day 3, AM, OS): 21.3
Intraocular pressure (IOP), group Average (intraocular pressure; Group 5, 10 mg/kg subcutaneous BID, Day 4, AM, OD): 21.9
Intraocular pressure (IOP), group Average (intraocular pressure; Group 5, 10 mg/kg subcutaneous BID, Day 6, AM, OD): 24.5
Intraocular pressure (IOP), group Average (intraocular pressure; Group 5, 10 mg/kg subcutaneous BID, Day 6, AM, OS): 25.0
Intraocular pressure (IOP), group Average (intraocular pressure; Group 5, 10 mg/kg subcutaneous BID, Day 7, AM, OS): 23.9
Intraocular pressure (IOP), group Average (intraocular pressure; Group 5, 10 mg/kg subcutaneous BID, Day 7, PM, OD): 24.1
Intraocular pressure (IOP), group Average (intraocular pressure; Group 5, 10 mg/kg subcutaneous BID, Day 8, AM, OS): 24.0
apparent reduction in intraocular pressure values (intraocular pressure; Groups 3 and 4 (1.2 mg/eye topical BID, QD), Day 7 and Day 8 (24 hours after the end of dosing)): persisted
effect on intraocular pressure (intraocular pressure; topically administered, 1.2 mg/eye dose, QD or BID): observed to reduce intraocular pressure
general health [2]: normal health and activity; also recorded: No adverse effects
